Measured values reported in ChEMBL document CHEMBL1201862, “PubChem BioAssay data set” (2004).
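Interpolation was linear, between the two tested concentrations surrounding the appropriate level; five concentrations were tested over 48 hours in 96-well plates. GI50 marks 50% less growth.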 Active and inactive are the calls of the source. Rule as the data show it: active = GI50 up to about 1.1 µM and inactive = higher.

Columns and labels:
Test in all cases: inhibition of tumour cell growth, NCI panel, 48 h
A498 = tested on: A498
A549 = tested on: A549
ACHN = tested on: ACHN
CCRF-CEM = tested on: CCRF-CEM
HCT-15 = tested on: HCT-15
Hs-578T = tested on: Hs-578T
KM12 = tested on: KM12
MDA-MB-231 = tested on: MDA-MB-231
Malme-3M = tested on: Malme-3M
NCI/ADR-RES = tested on: NCI/ADR-RES
SF-539 = tested on: SF-539
SK-MEL-28 = tested on: SK-MEL-28
SK-OV-3 = tested on: SK-OV-3
SN12C = tested on: SN12C
TK-10 = tested on: TK-10
UACC-257 = tested on: UACC-257
UACC-62 = tested on: UACC-62
SNB-75 = tested on: SNB-75
T47D = tested on: T47D

Row | SMILES | GI50 (A498) | GI50 (A549) | GI50 (ACHN) | GI50 (CCRF-CEM) | GI50 (HCT-15) | GI50 (Hs-578T) | GI50 (KM12) | GI50 (MDA-MB-231) | GI50 (Malme-3M) | GI50 (NCI/ADR-RES) | GI50 (SF-539) | GI50 (SK-MEL-28) | GI50 (SK-OV-3) | GI50 (SN12C) | GI50 (TK-10) | GI50 (UACC-257) | GI50 (UACC-62) | GI50 (SNB-75) | GI50 (T47D)
1 | O=C1Nc2ccccc2N/C1=C\C(=O)C(F)F | > 100 µM (inactive) | > 100 µM (inactive) | > 100 µM (inactive) | > 100 µM (inactive) | > 100 µM | > 100 µM (inactive) | > 100 µM (inactive) | > 100 µM (inactive) | > 100 µM (inactive) | > 100 µM (inactive) | > 100 µM (inactive) | > 100 µM (inactive) | > 100 µM (inactive) | > 100 µM (inactive) | > 100 µM (inactive) | > 100 µM (inactive) | > 100 µM (inactive) |  | 
2 | N#Cc1c(-c2ccc([N+](=O)[O-])cc2)c(C#N)c(=O)n(NS(=O)(=O)c2ccccc2)c1-c1ccccc1 | > 100 µM (inactive) | > 100 µM (inactive) | > 100 µM (inactive) | > 100 µM (inactive) | > 100 µM | > 100 µM (inactive) | > 100 µM (inactive) | > 100 µM (inactive) | > 100 µM (inactive) | > 100 µM (inactive) | > 100 µM (inactive) | > 100 µM (inactive) | > 100 µM (inactive) | > 100 µM (inactive) | > 100 µM (inactive) | > 100 µM (inactive) | > 100 µM (inactive) | > 100 µM (inactive) | 
3 | NC(=S)Nc1c(S(N)(=O)=O)cc(S(N)(=O)=O)c(Cl)c1Cl |  | > 100 µM (inactive) |  | > 100 µM (inactive) | > 100 µM | > 100 µM (inactive) | > 100 µM (inactive) | > 100 µM (inactive) | > 100 µM (inactive) | > 100 µM (inactive) | 0.443 µM (active) | > 100 µM (inactive) | > 100 µM (inactive) | > 100 µM (inactive) | > 100 µM (inactive) | > 100 µM (inactive) | > 100 µM (inactive) | > 100 µM (inactive) | 
4 | Cc1c2c(Cl)c3c(c(Cl)c2c(C)c2c(Cl)c4c(c(Cl)c12)C(c1ccccc1)(c1ccccc1)C4(c1ccccc1)c1ccccc1)C(c1ccccc1)(c1ccccc1)C3(c1ccccc1)c1ccccc1 | > 100 µM (inactive) | > 100 µM (inactive) | > 100 µM (inactive) | > 100 µM (inactive) | > 100 µM |  | > 100 µM (inactive) | > 100 µM (inactive) | > 100 µM (inactive) | > 100 µM (inactive) | > 100 µM (inactive) | > 100 µM (inactive) | > 100 µM (inactive) | > 100 µM (inactive) | > 100 µM (inactive) | > 100 µM (inactive) | > 100 µM (inactive) | > 100 µM (inactive) | > 100 µM (inactive)
5 | CN1CCN(C(=S)N(C)C(=O)c2ccco2)CC1 |  | > 100 µM (inactive) | > 100 µM (inactive) | > 100 µM (inactive) | > 100 µM | > 100 µM (inactive) | > 100 µM (inactive) | > 100 µM (inactive) | > 100 µM (inactive) |  |  |  |  | > 100 µM (inactive) | > 100 µM (inactive) | > 100 µM (inactive) | > 100 µM (inactive) |  | > 100 µM (inactive)
6 | CCOC(=O)c1nc2cc(C(F)(F)F)ccc2nc1Nc1ccc(C(=O)NC(C(=O)OCC)C(=O)OCC)cc1 | 25.5 µM (inactive) |  | 23.3 µM (inactive) | 75 µM (inactive) | 26.5 µM | 12.4 µM (inactive) | 27.5 µM (inactive) | 17.4 µM (inactive) | 20 µM (inactive) |  |  | 14.1 µM (inactive) | 22.2 µM (inactive) | 18.9 µM (inactive) | 24.7 µM (inactive) | 18.7 µM (inactive) | 11.5 µM (inactive) |  | 
7 | CCNCCNc1c2ccccc2nc2ccccc12 |  | 1.56 µM (inactive) | 0.366 µM (active) | 1.29 µM (inactive) | 1.48 µM | 1.98 µM (inactive) | 1.58 µM (inactive) | 1.24 µM (inactive) | 1.7 µM (inactive) | 2.72 µM (inactive) | 0.745 µM (active) |  | 1.07 µM (active) | 0.938 µM (active) | 2.91 µM (inactive) | 1.66 µM (inactive) | 1.49 µM (inactive) | 1.53 µM (inactive) | 2.38 µM (inactive)
8 | C=C1CC[C@@H]2C13[C@@H]1[C@H](CC(=O)[C@@]23C)C1(C)C (some centres undefined) | > 100 µM (inactive) | 26.4 µM (inactive) | > 100 µM (inactive) |  | > 100 µM | > 100 µM (inactive) | > 100 µM (inactive) |  | > 100 µM (inactive) | > 100 µM (inactive) | 67.1 µM (inactive) | > 100 µM (inactive) | > 100 µM (inactive) | > 100 µM (inactive) | 33.7 µM (inactive) | > 100 µM (inactive) | > 100 µM (inactive) |  | 55.8 µM (inactive)
